The subject of assay [1] is Trypanosoma brucei rhodensiense (STIB 900 strain). Nature of the assay: African trypanosoma protozoa proliferation inhibition screening test. It is filed as cell-based. To be noted: for Selective toxicity: EC50 rat L6 cells / EC50 African trypanosoma protozoa; for EC50: Trypanosoma brucei, STIB900, read-out: EC50 Trypanosoma brucei rhod.; for EC50 / EC50 Trypanosoma brucei rhod.: STIB 900 bloodstream form, 72 hours, Alamar blue. As for the experimental part:
In this experiment, bloodstream form trypomastigote of Trypanosoma brucei rhodensiense (STIB 900 strain) was used. The medium used in the experiment was prepared as follows: to filter-sterilized MEM medium, 25 mM N-2-hydroxyethylpiperazine-2-ethane sulfonate (HEPES), 1 g/L glucose, 1% MEM nonessential amino acid, 0.2 mM 2-mercaptoethanol, 2 mM pyruvic calcium salt, 0.1 mM hypoxanthine, and 15% heat-treated horse serum were added. The protozoa was cultured under atmosphere of CO2 concentration 5% and temperature 37° C.
Either the compound of the invention or a positive control (melarsoprol) was dissolved into dimethylsulfoxide (DMSO) to prepare test solution having predefined concentration. To each well in a 96-well culture plate, medium containing 8×10^3 protozoa, and either test solution containing the test compound at predefined concentration or DMSO without compound was added. Then medium was added to achieve 100 μL. The test solution was duplicated.
The culture plate was cultured in an incubator for 72 hours, and the proliferation inhibition activity was examined. The activity was determined as follows. To each well, 10 μL Alamar blue water solution was added, then the plate was again cultured for 2 hours. Then the culture plate was mounted on a fluorescence microplate reader (Spectramax Gemeni XS; Molecular Devices Corporation, U.S.), and irradiated with 536 nm excitation wavelength to determine fluorescence at 588 nm. The trypanosoma infection rate of the sample containing the test composition and that of the control sample was calculated.
Using the protozoa infection rate thus obtained, the proliferation inhibition rate was calculated according to the following equation to determine 50% proliferation inhibition concentration (EC50).
Proliferation inhibition rate(%)={1−(b−a)/(c−a)}×100
a: initial infection rate b: infection rate of the test compound solution c: infection rate of the control

The test system of assay [2] is Plasmodium Falciparum k1 strain. The experiment in a line: Chloroquine-resistant tropical malaria protozoa proliferation inhibition screening test. It is filed as cell-based. To be noted: for Selective toxicity: EC50 rat L6 cells / EC50 Chloroquine-resistant malaria protozoa; for EC50: Plasmodium falciparum. The procedure, abridged:
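Infected erythrocytes (0.15% initial infection, 2.5% hematocrit) in RPMI-1640 with 5% human serum were cultured 48 h at 37 °C under 3% O2/4% CO2 with compound, then 24 h with 0.5 μCi [3H]hypoxanthine.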

For assay [3], the system named is Plasmodium berghei NK 65 strain. Nature of the assay: animal or person. It is filed as in vivo. To be noted: for Survival days (mean survival days, treatment group minus control group) / Recovery Rate (suppression): 4 days; for Recovery Rate (suppression): P. berghei infected ICR mice.
[4] abbreviates: Plasmodium berghei, ip, 96 h, read-out: Recovery Rate (suppression).
[5] abbreviates: chloroquine-resistant K1 strain, 3H-hypoxanthine uptake, read-out: EC50 P. falciparum K1.
The mark [6] stands for this setting: chloroquine-resistant K1 strain, 3H-hypoxanthine uptake.
Where [7] appears, read: dose 25 mg/kg/d intraperitoneally.

Structures are written as SMILES. Read-outs that look alike come from different tables or passages of the source.

For `CN1/C(=c2\s/c(=C\c3cccc[n+]3CCC(=O)O)n(CC3CO3)c2=O)Sc2ccccc21` (stereo not drawn) [Compound S-3, reference compound], the figures for the Selective toxicity in assay [1] and in assay [2] were above 15 and above 320, respectively. Moreover, the EC50 amounted to 6.1 µg/mL in assay [1] and 0.28 µg/mL in assay [2] (K1, read-out: EC50 P. falciparum K1). For the same compound, the inhibition in vivo at 5 mg/kg/day in assay [3] (setting [4]) was 29.8%. In assay [3] (dose 5.0 mg/kg/d intraperitoneally), the “Survival days (mean survival days, treatment group minus control group)” value is 0 days.
Regarding `CCN1C(=O)/C(=c2/s/c(=C3/SCCN3C)c(=O)n2CC)S/C1=N\c1sc2cc(Cl)ccc2[n+]1C` [Compound B-12], the results for the Selective toxicity in assay [1] and in assay [2] were 50 and 507, respectively. Also, the EC50 in assay [1] was determined as 0.138 µg/mL; in assay [2] (setting [5]) it was 0.0136 µg/mL. Further, the inhibition in vivo at 25 mg/kg/day in assay [3] (setting [4]) came out at 88.4%.
With `CCN1C(=O)/C(=c2/s/c(=C3/C=CC=CN3C)c(=O)n2CC)S/C1=N\c1sc2cc(OC)ccc2[n+]1C` [Compound B-28], the “EC50 Trypanosoma brucei rhod.” value in assay [1] was determined as 0.042 µg/mL. Also, the “EC50 P. falciparum K1” value in assay [2] (setting [6]) came to 0.007 µg/mL. Further, the “Recovery Rate (suppression)” value in assay [3] (setting [7]) is given as 98.3%.
For `CCn1c(=O)/c(=C2\SCCN2C)s/c1=C1\S/C(=N\c2sc3cc(Cl)ccc3[n+]2C)N(C(C)C)C1=O` [Compound B-37], the Selective toxicity in assay [1] amounted to 19; in assay [2], 160. The results for the EC50 in assay [1] and in assay [2] (setting [5]) were 0.052 µg/mL and 0.009 µg/mL, respectively. For the same compound, in assay [3] (setting [4]), the inhibition in vivo at 25 mg/kg/day was 94.5%.
Take `CCN1C(=O)/C(=c2/s/c(=C3/C=CC=CN3C)c(=O)n2CC)S/C1=N\c1sc2ccccc2[n+]1C` [Compound B-30]: the “EC50 Trypanosoma brucei rhod.” value in assay [1] amounted to 0.0625 µg/mL. Besides, the “EC50 P. falciparum K1” value in assay [2] (setting [6]) was 0.0119 µg/mL. For the same compound, the “Recovery Rate (suppression)” value in assay [3] (dose 10 mg/kg/d intraperitoneally) is reported as 70.8%; in assay [3] (dose 20 mg/kg/d intraperitoneally), 92.4%; in assay [3] (setting [7]), 96.4%; in assay [3] (dose 40 mg/kg/d intraperitoneally) it was 97.8%. Moreover, in assay [3] (setting [7]), the “Survival days (mean survival days, treatment group minus control group)” value came out at 16.0 days.
For `CCN1C(=O)/C(=c2/s/c(=C3/SCCN3C)c(=O)n2CC)S/C1=N\c1sc2cc(OC)ccc2[n+]1C` [Compound B-29], the “EC50 Trypanosoma brucei rhod.” value in assay [1] stood at 0.023 µg/mL. Besides, in assay [2] (setting [6]), the “EC50 P. falciparum K1” value came to 0.006 µg/mL. In assay [3] (setting [7]), the “Recovery Rate (suppression)” value came to 95.0%.
In the case of `CCN1C(=O)/C(=c2/s/c(=C3/SCCN3C)c(=O)n2CC)S/C1=N\c1sc2cc(F)ccc2[n+]1C` [Compound B-33], the “EC50 Trypanosoma brucei rhod.” value in assay [1] was 0.1485 µg/mL. Besides, the “EC50 P. falciparum K1” value in assay [2] (setting [6]) is 0.0167 µg/mL. Also, in assay [3] (setting [7]), the “Survival days (mean survival days, treatment group minus control group)” value worked out at 8.7 days and the “Recovery Rate (suppression)” value was 70.5%.
Regarding `CCN1C(=O)/C(=c2/s/c(=C3/C=CC=CN3C)c(=O)n2CC)S/C1=N\c1sc2cc(Cl)ccc2[n+]1C` [Compound B-2], in assay [1], the Selective toxicity was found to be 258 and the EC50 was 0.104 µg/mL. Also, the Selective toxicity in assay [2] stood at 4495. Moreover, in assay [2] (setting [5]), the EC50 was found to be 0.006 µg/mL. Also, in assay [3] (setting [4]), the inhibition in vivo at 10 mg/kg/day amounted to 79.8%, the inhibition in vivo at 20 mg/kg/day stood at 97.4%, the inhibition in vivo at 25 mg/kg/day came out at 97.1% and the inhibition in vivo at 40 mg/kg/day was 99.1%. For the same compound, the “Survival days (mean survival days, treatment group minus control group)” value in assay [3] (setting [7]) was found to be 19.3 days.
Turning to `CCN1C(=O)/C(=C2\Sc3ccccc3N2C)S/C1=N\c1sc2cc(Cl)ccc2[n+]1C` [Compound A-1], in assay [1], the Selective toxicity worked out at 94 and the EC50 was determined as 0.403 µg/mL. This compound gave a Selective toxicity in assay [2] of 255. Moreover, in assay [2] (setting [5]), the EC50 turned out to be 0.148 µg/mL. For the same compound, in assay [3] (setting [4]), the inhibition in vivo at 10 mg/kg/day was determined as 54.1% and the inhibition in vivo at 25 mg/kg/day came to 62.7%. For the same compound, in assay [3] (setting [7]), the “Survival days (mean survival days, treatment group minus control group)” value turned out to be 2.0 days.
As for `CCN1C(=O)/C(=C2\C=Cc3ccccc3N2C)S/C1=N\c1sc2cc(Cl)ccc2[n+]1C` [Compound A-2], the Selective toxicity stood at 72 in assay [1] and 2500 in assay [2]. For the same compound, the 50% effective concentration (EC50) in assay [1] is 0.076 µg/mL; in assay [2] (setting [5]), 0.0022 µg/mL. The inhibition in vivo at 10 mg/kg/day in assay [3] (setting [4]) turned out to be 54.6%.

Broadly, the EC50 is the concentration needed to bring the measured effect to its halfway point.

The values are drawn from US20090076067A1, “PHARMACEUTICAL COMPOSITION COMPRISING AZARHODACYANINE COMPOUND AS ACTIVE INGREDIENT” (priority 2005, published 2009).
